Data: US20080234266A1, “Squaric Acid Derivatives II” (priority 2005, published 2008)

Target: T1, CHK1 kinase (Homo sapiens, UniProt O14757)
T1 construct: glutathione S-transferase (GST); made in house; host or cells: Sf21 insect cells (S. frugiperda), baculovirus
T1 sequence (O14757 1-476): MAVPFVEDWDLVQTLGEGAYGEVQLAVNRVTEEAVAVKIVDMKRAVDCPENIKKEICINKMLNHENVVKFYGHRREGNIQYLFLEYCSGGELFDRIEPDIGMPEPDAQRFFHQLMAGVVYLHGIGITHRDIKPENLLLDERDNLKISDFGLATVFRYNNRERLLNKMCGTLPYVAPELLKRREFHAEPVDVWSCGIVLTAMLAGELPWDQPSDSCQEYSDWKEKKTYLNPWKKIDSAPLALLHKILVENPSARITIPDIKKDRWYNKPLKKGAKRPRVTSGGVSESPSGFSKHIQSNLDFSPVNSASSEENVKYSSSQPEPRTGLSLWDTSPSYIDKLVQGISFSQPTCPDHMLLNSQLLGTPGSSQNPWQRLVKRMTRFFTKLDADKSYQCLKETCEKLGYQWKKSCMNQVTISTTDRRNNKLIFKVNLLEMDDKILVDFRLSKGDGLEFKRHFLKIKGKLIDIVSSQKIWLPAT
Assay: Flashplate method (CHK1), measurement of the CHK1 kinase activity
Format: biochemical
Conditions: class symbols; 'Affinity to receptors'
How it was run: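 GST-tagged CHK1 expressed in Sf21 insect cells, incubated at 30 °C with biotinylated CHKtide (0.15 μg per well) and γ33P-ATP in pH 7.5 buffer (EGTA, Mg acetate, mercaptoethanol, 0.1% BSA). Stopped with EDTA, captured on streptavidin Flashplates and counted by scintillation. IC50 set against uninhibited reaction and 0.1 μM staurosporine as zero.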

Row | IC50 [nM] | SMILES
1 | > 1000 | CC(C)(C)OC(=O)N1CCC(Oc2ccccc2CNc2c(Nc3ccc4[nH]cnc4c3)c(=O)c2=O)CC1 [Compound A146, 3-(1H-benzimidazol-5-ylamino)-4-[2-(1-tert-butyloxycarbonylpiperidin-4-yloxy)benzyl-amino]cyclobut-3-ene-1,2-dione]
2 | > 1000 | CN(C)c1ccc(CNc2c(Nc3ccc4[nH]cnc4c3)c(=O)c2=O)cc1 [Compound A147, 3-(1H-benzimidazol-5-ylamino)-4-(4-dimethylaminobenzylamino)cyclobut-3-ene-1,2-dione]
3 | > 1000 | O=c1c(NCc2ccccc2OC2CCNCC2)c(Nc2ccc3[nH]cnc3c2)c1=O [Compound A148, 3-(1H-benzimidazol-5-ylamino)-4-[2-(piperidin-4-yloxy)benzylamino]cyclobut-3-ene-1,2-dione]
4 | > 1000 | O=c1c(NCCc2ccccc2O)c(Nc2ccc3[nH]cnc3c2)c1=O [Compound A149, 3-(1H-benzimidazol-5-ylamino)-4-[2-(2-hydroxyphenyl)ethylamino]cyclobut-3-ene-1,2-dione]
5 | > 1000 | CS(=O)(=O)c1ccc(CNc2c(Nc3ccc4[nH]cnc4c3)c(=O)c2=O)cc1 [Compound A150, 3-(1H-benzimidazol-5-ylamino)-4-(4-methyl-sulfonylbenzylamino)cyclobut-3-ene-1,2-dione]
6 | > 1000 | NS(=O)(=O)c1ccc(CNc2c(Nc3ccc4[nH]cnc4c3)c(=O)c2=O)cc1 [Compound A151, 3-(1H-benzimidazol-5-ylamino)-4-(4-amino-sulfonylbenzylamino)cyclobut-3-ene-1,2-dione]
7 | > 1000 | CNS(=O)(=O)c1ccc(CNc2c(Nc3ccc4[nH]cnc4c3)c(=O)c2=O)cc1 [Compound A152, 3-(1H-benzimidazol-5-ylamino)-4-[4-(N-methylaminosulfonyl)benzylamino]cyclobut-3-ene-1,2-dione]
8 | > 1000 | CNS(=O)(=O)c1ccc(CN(C)c2c(Nc3ccc4[nH]cnc4c3)c(=O)c2=O)cc1 [Compound A153, 3-(1H-benzimidazol-5-ylamino)-4-[4-(N-methylaminosulfonyl)benzyl-N-methylamino]-cyclobut-3-ene-1,2-dione]
9 | > 1000 | CNS(=O)(=O)c1ccccc1CNc1c(Nc2ccc3[nH]cnc3c2)c(=O)c1=O [Compound A154, 3-(1H-benzimidazol-5-ylamino)-4-[2-(N-methylaminosulfonyl)benzylamino]cyclobut-3-ene-1,2-dione]
10 | > 1000 | NS(=O)(=O)c1ccccc1CNc1c(Nc2ccc3[nH]cnc3c2)c(=O)c1=O [Compound A155, 3-(1H-benzimidazol-5-ylamino)-4-(2-amino-sulfonylbenzylamino)cyclobut-3-ene-1,2-dione]
11 | > 1000 | CS(=O)(=O)Nc1ccc(CNc2c(Nc3ccc4[nH]cnc4c3)c(=O)c2=O)cc1 [Compound A156, 3-(1H-benzimidazol-5-ylamino)-4-(4-methyl-sulfonylaminobenzylamino)cyclobut-3-ene-1,2-dione]
12 | > 1000 | CC(=O)Nc1ccc(CNc2c(Nc3ccc4[nH]cnc4c3)c(=O)c2=O)cc1 [Compound A157, 3-(1H-benzimidazol-5-ylamino)-4-(4-acetamidobenzylamino)cyclobut-3-ene-1,2-dione]
13 | > 1000 | O=c1c(NCc2ccccc2O)c(Nc2ccc3[nH]cnc3c2)c1=O [Compound A158, 3-(1H-benzimidazol-5-ylamino)-4-(2-hydroxy-benzylamino)cyclobut-3-ene-1,2-dione]
14 | > 1000 | NC(=O)c1ccc(CNc2c(Nc3ccc4[nH]cnc4c3)c(=O)c2=O)cc1 [Compound A159, 3-(1H-benzimidazol-5-ylamino)-4-(4-amino-carbonylbenzylamino)cyclobut-3-ene-1,2-dione]
15 | > 1000 | O=c1[nH]c2cc(CNc3c(Nc4ccc5[nH]cnc5c4)c(=O)c3=O)ccc2o1 [Compound A160, 3-(1H-benzimidazol-5-ylamino)-4-[(2-oxo-2,3-dihydrobenzoxazol-5-ylmethyl)amino]-cyclobut-3-ene-1,2-dione]
